One molecule from PMC5218480 (PLoS ONE, 2017) can be followed below.

The test concerns MV-4-11 cells. The experiment in a line: Gene expression microarray analysis (Affymetrix PrimeView) and GSEA. The test is classed as cell-based, human. Further details: RFU PODN (11730768_x_at) / Fold change /veh PODN (11730768_x_at) / RFU LINC00158 (11744669_a_at) / Fold change /veh LINC00158 (11744669_a_at) / RFU DUSP10 (11751237_a_at) / Fold change /veh DUSP10 (11751237_a_at) / RFU ID3 (11757404_x_at) / Fold change /veh ID3 (11757404_x_at) / RFU PLEKHG5 (11737974_s_at) / Fold change /veh PLEKHG5 (11737974_s_at) / RFU LRRC4B (11730491_at) / Fold change /veh LRRC4B (11730491_at) / RFU GIMAP4 (11747438_a_at) / Fold change /veh GIMAP4 (11747438_a_at) / RFU KRT8 (11758183_x_at) / Fold change /veh KRT8 (11758183_x_at) / RFU CNN1 (11734310_a_at) / Fold change /veh CNN1 (11734310_a_at) / RFU VPS37D (11726825_at) / Fold change /veh VPS37D (11726825_at) / RFU C10orf10 (11716522_x_at) / Fold change /veh C10orf10 (11716522_x_at) / RFU KIR2DL2 /// KIR2DL4 /// KIR2DL5A /// KIR2DL5B /// KIR2DS1 /// KIR2DS2 /// KIR2DS3 /// KIR2DS4 /// KIR3DL3 /// KIR3DL3 /// KIR3DS1 (11738374_at) / Fold change /veh KIR2DL2 /// KIR2DL4 /// KIR2DL5A /// KIR2DL5B /// KIR2DS1 /// KIR2DS2 /// KIR2DS3 /// KIR2DS4 /// KIR3DL3 /// KIR3DL3 /// KIR3DS1 (11738374_at) / RFU C1QL1 (11718748_at) / Fold change /veh C1QL1 (11718748_at) / RFU TMPRSS4 (11747572_a_at) / Fold change /veh TMPRSS4 (11747572_a_at) / RFU HAMP (11756126_x_at) / Fold change /veh HAMP (11756126_x_at) / RFU RNFT2 (11725882_a_at) / Fold change /veh RNFT2 (11725882_a_at) / RFU NR4A2 (11747474_a_at) / Fold change /veh NR4A2 (11747474_a_at) / RFU ABCC12 (11746883_a_at) / Fold change /veh ABCC12 (11746883_a_at) / RFU TMEM136 (11760407_x_at) / Fold change /veh TMEM136 (11760407_x_at) / RFU CLDN22 /// WWC2 (11732394_at) / Fold change /veh CLDN22 /// WWC2 (11732394_at) / RFU HLA-DPB1 (11760878_x_at) / Fold change /veh HLA-DPB1 (11760878_x_at) / RFU SPINT1 (11716480_a_at) / Fold change /veh SPINT1 (11716480_a_at) / RFU GAP43 (11754022_s_at) / Fold change /veh GAP43 (11754022_s_at) / RFU A4GNT (11735810_at) / Fold change /veh A4GNT (11735810_at) / RFU PRB3 (11715151_x_at) / Fold change /veh PRB3 (11715151_x_at) / RFU TUBB4B (11761932_at) / Fold change /veh TUBB4B (11761932_at) / RFU CAPN14 (11732068_a_at) / Fold change /veh CAPN14 (11732068_a_at) / RFU TMCC2 (11721928_a_at) / Fold change /veh TMCC2 (11721928_a_at) / RFU IRGQ (11745062_a_at) / Fold change /veh IRGQ (11745062_a_at) / RFU FAM174B (11720279_a_at) / Fold change /veh FAM174B (11720279_a_at) / RFU TMPRSS4 (11748680_a_at) / Fold change /veh TMPRSS4 (11748680_a_at) / RFU FAM212B (11763350_a_at) / Fold change /veh FAM212B (11763350_a_at) / RFU PLEKHG5 (11743358_a_at) / Fold change /veh PLEKHG5 (11743358_a_at) / RFU ZSCAN30 (11745921_a_at) / Fold change /veh ZSCAN30 (11745921_a_at) / RFU CMKLR1 (11741424_a_at) / Fold change /veh CMKLR1 (11741424_a_at) / RFU LOC101060620 /// MAPK8IP1 (11723275_at) / Fold change /veh LOC101060620 /// MAPK8IP1 (11723275_at) / RFU SPTSSB (11747773_x_at) / Fold change /veh SPTSSB (11747773_x_at) / RFU PRSS12 (11739890_at) / Fold change /veh PRSS12 (11739890_at) / RFU BIN1 (11741810_x_at) / Fold change /veh BIN1 (11741810_x_at) / RFU WNT11 (11732464_a_at) / Fold change /veh WNT11 (11732464_a_at) / RFU C10orf10 (11716521_a_at) / Fold change /veh C10orf10 (11716521_a_at) / RFU C5orf56 (11738089_at) / Fold change /veh C5orf56 (11738089_at) / RFU CYB561 (11721691_x_at) / Fold change /veh CYB561 (11721691_x_at) / RFU ANKRD19P (11752326_a_at) / Fold change /veh ANKRD19P (11752326_a_at) / RFU OR2T12 /// OR2T33 /// OR2T8 (11738714_s_at) / Fold change /veh OR2T12 /// OR2T33 /// OR2T8 (11738714_s_at) / RFU VCAN (11748164_a_at) / Fold change /veh VCAN (11748164_a_at) / RFU JSRP1 (11732532_at) / Fold change /veh JSRP1 (11732532_at) / RFU KRTAP10-11 (11738290_x_at) / Fold change /veh KRTAP10-11 (11738290_x_at) / RFU MYO3A (11730013_a_at) / Fold change /veh MYO3A (11730013_a_at) / RFU EBF3 (11725865_a_at) / Fold change /veh EBF3 (11725865_a_at) / RFU CAMK2N1 (11719241_x_at) / Fold change /veh CAMK2N1 (11719241_x_at) / RFU C5orf56 (11738088_a_at) / Fold change /veh C5orf56 (11738088_a_at) / RFU OLFML3 (11715873_a_at) / Fold change /veh OLFML3 (11715873_a_at) / RFU LOC100653217 /// NTM (11731650_a_at) / Fold change /veh LOC100653217 /// NTM (11731650_a_at) / RFU MAPK11 (11762145_a_at) / Fold change /veh MAPK11 (11762145_a_at) / RFU FIZ1 (11724087_x_at) / Fold change /veh FIZ1 (11724087_x_at) / RFU OASL (11726364_x_at) / Fold change /veh OASL (11726364_x_at) / RFU SOX15 (11748057_x_at) / Fold change /veh SOX15 (11748057_x_at) / RFU CD79A (11719716_a_at) / Fold change /veh CD79A (11719716_a_at) / RFU HIST1H1D (11736915_at) / Fold change /veh HIST1H1D (11736915_at) / RFU CASKIN2 (11723855_a_at) / Fold change /veh CASKIN2 (11723855_a_at) / RFU LOC730098 (11760151_x_at) / Fold change /veh LOC730098 (11760151_x_at) / RFU OR4N2 (11742367_at) / Fold change /veh OR4N2 (11742367_at) / RFU PRRT2 (11749266_a_at) / Fold change /veh PRRT2 (11749266_a_at) / RFU SNX32 (11753110_a_at) / Fold change /veh SNX32 (11753110_a_at) / RFU CDHR5 (11726645_a_at) / Fold change /veh CDHR5 (11726645_a_at) / RFU RCAN1 (11760418_a_at) / Fold change /veh RCAN1 (11760418_a_at) / RFU FAM167A (11723789_a_at) / Fold change /veh FAM167A (11723789_a_at) / RFU FAM26E (11764081_at) / Fold change /veh FAM26E (11764081_at) / RFU ISYNA1 (11749810_s_at) / Fold change /veh ISYNA1 (11749810_s_at) / RFU ACY1 (11761880_at) / Fold change /veh ACY1 (11761880_at) / RFU 11764098_at / Fold change /veh 11764098_at / RFU SAMD14 (11745864_x_at) / Fold change /veh SAMD14 (11745864_x_at) / RFU NPB (11741838_a_at) / Fold change /veh NPB (11741838_a_at) / RFU TMPRSS6 (11731388_a_at) / Fold change /veh TMPRSS6 (11731388_a_at) / RFU KRTAP10-2 (11738614_at) / Fold change /veh KRTAP10-2 (11738614_at) / RFU ARHGAP8 /// PRR5-ARHGAP8 (11727945_x_at) / Fold change /veh ARHGAP8 /// PRR5-ARHGAP8 (11727945_x_at) / RFU KRTAP5-7 /// NADSYN1 (11734609_at) / Fold change /veh KRTAP5-7 /// NADSYN1 (11734609_at) / RFU RASL12 (11751679_a_at) / Fold change /veh RASL12 (11751679_a_at) / RFU CDKN2B (11736163_a_at) / Fold change /veh CDKN2B (11736163_a_at) / RFU PRF1 (11729649_at) / Fold change /veh PRF1 (11729649_at) / RFU, ZNF638 /// ZNF638-IT1 / Fold change vs veh, ZNF638 /// ZNF638-IT1 / RFU, PANK3 / Fold change vs veh, PANK3 / RFU, SH3YL1 / Fold change vs veh, SH3YL1 / RFU, ZEB2 / Fold change vs veh, ZEB2 / RFU, NRIP1 / Fold change vs veh, NRIP1 / RFU, PTTG1IP / Fold change vs veh, PTTG1IP / RFU, CAPN2 / Fold change vs veh, CAPN2 / RFU, MED14 / Fold change vs veh, MED14 / RFU, SNORA58 / Fold change vs veh, SNORA58 / RFU, C1orf63 / Fold change vs veh, C1orf63 / RFU, LRRFIP1 / Fold change vs veh, LRRFIP1 / RFU, NDUFAF7 / Fold change vs veh, NDUFAF7 / RFU, SLC12A2 / Fold change vs veh, SLC12A2 / RFU, IBTK / Fold change vs veh, IBTK / RFU, ESF1 / Fold change vs veh, ESF1 / Fold change vs veh, TMEM50B / RFU, TAOK1 / Fold change vs veh, TAOK1 / RFU, ACBD3 / Fold change vs veh, ACBD3 / RFU, TMA16 / Fold change vs veh, TMA16 / RFU, RWDD3 / Fold change vs veh, RWDD3 / RFU, BCAT1 / Fold change vs veh, BCAT1 / RFU, EDEM3 / Fold change vs veh, EDEM3 / RFU, TMEM33 / Fold change vs veh, TMEM33 / RFU, WDR75 / Fold change vs veh, WDR75 / RFU, AHCTF1 / Fold change vs veh, AHCTF1 / RFU, TFRC / Fold change vs veh, TFRC / RFU, ZDHHC17 / Fold change vs veh, ZDHHC17 / RFU, NOM1 / Fold change vs veh, NOM1 / RFU, ARL8B / Fold change vs veh, ARL8B / RFU, ZBTB11 / Fold change vs veh, ZBTB11 / RFU, TAMM41 / Fold change vs veh, TAMM41 / RFU, KIAA1704 /// LOC100996395 / Fold change vs veh, KIAA1704 /// LOC100996395 / RFU, ING1 / Fold change vs veh, ING1 / RFU, TRMT61B / Fold change vs veh, TRMT61B / RFU, FUBP3 / Fold change vs veh, FUBP3 / RFU, TP53 / Fold change vs veh, TP53 / RFU, TNKS2 / Fold change vs veh, TNKS2 / RFU, ZFP14 / Fold change vs veh, ZFP14 / RFU, ACTR2 / Fold change vs veh, ACTR2 / RFU, PPP3R1 / Fold change vs veh, PPP3R1 / RFU, PIK3R1 / Fold change vs veh, PIK3R1 / RFU, HNRNPA1 / Fold change vs veh, HNRNPA1 / RFU, RNF170 / Fold change vs veh, RNF170 / RFU, ZNF28 / Fold change vs veh, ZNF28 / RFU, RNGTT / Fold change vs veh, RNGTT / RFU, OGT / Fold change vs veh, OGT / RFU, BRD1 / Fold change vs veh, BRD1 / RFU, MARS / Fold change vs veh, MARS / RFU, ZNF655 / Fold change vs veh, ZNF655 / RFU, FAHD1 / Fold change vs veh, FAHD1 / RFU, BDP1 / Fold change vs veh, BDP1 / RFU, LRRCC1 / Fold change vs veh, LRRCC1 / RFU, ARID1A / Fold change vs veh, ARID1A / RFU, ZNF146 / Fold change vs veh, ZNF146 / RFU, ZNF330 / Fold change vs veh, ZNF330 / RFU, GPN3 / Fold change vs veh, GPN3 / RFU, C9orf123 / Fold change vs veh, C9orf123 / RFU, N4BP2L2 / Fold change vs veh, N4BP2L2 / RFU, ARFIP1 / Fold change vs veh, ARFIP1 / RFU, FAM179B / Fold change vs veh, FAM179B / RFU, BCL10 / Fold change vs veh, BCL10 / RFU, UHRF1BP1L / Fold change vs veh, UHRF1BP1L / RFU, BET1 / Fold change vs veh, BET1 / RFU, CNOT2 / Fold change vs veh, CNOT2 / RFU, ZNF268 / Fold change vs veh, ZNF268 / Fold change vs veh, ZNF507 / RFU, DGCR2 / Fold change vs veh, DGCR2 / RFU, WDSUB1 / Fold change vs veh, WDSUB1 / Fold change vs veh, HSP90B1 /// MIR3652 / RFU, ADSS / Fold change vs veh, ADSS / RFU, GK / Fold change vs veh, GK / RFU, ZNF148 / Fold change vs veh, ZNF148 / RFU, TAF9 / Fold change vs veh, TAF9 / RFU, SLC1A5 / Fold change vs veh, SLC1A5 / RFU, SLMO2 / Fold change vs veh, SLMO2 / RFU, ABCC4 / Fold change vs veh, ABCC4 / RFU, LOC101060439 /// RAP1B / Fold change vs veh, LOC101060439 /// RAP1B / RFU, RFX7 / Fold change vs veh, RFX7 / RFU, GTPBP10 / Fold change vs veh, GTPBP10 / RFU, CNEP1R1 / Fold change vs veh, CNEP1R1 / RFU, BIVM-ERCC5 /// ERCC5 / Fold change vs veh, BIVM-ERCC5 /// ERCC5 / RFU, ILF3 / Fold change vs veh, ILF3 / RFU 11762660_at / Fold change /veh 11762660_at / RFU VCAN (11757783_s_at) / Fold change /veh VCAN (11757783_s_at) / RFU DDX43 (11728927_at) / Fold change /veh DDX43 (11728927_at) / RFU KRT8 (11758188_x_at) / Fold change /veh KRT8 (11758188_x_at) / RFU NKD1 (11759106_at) / Fold change /veh NKD1 (11759106_at) / RFU SRD5A1 (11742802_a_at) / Fold change /veh SRD5A1 (11742802_a_at) / RFU TPSAB1 /// TPSB2 (11721975_s_at) / Fold change /veh TPSAB1 /// TPSB2 (11721975_s_at) / RFU GSTM3 (11746129_a_at) / Fold change /veh GSTM3 (11746129_a_at) / RFU IL23R (11737362_x_at) / Fold change /veh IL23R (11737362_x_at) / RFU TMEM51 (11727254_a_at) / Fold change /veh TMEM51 (11727254_a_at) / RFU PIWIL2 (11732686_x_at) / Fold change /veh PIWIL2 (11732686_x_at) / RFU ORM1 (11744905_x_at) / Fold change /veh ORM1 (11744905_x_at) / RFU CCDC152 (11743942_at) / Fold change /veh CCDC152 (11743942_at) / RFU ECM1 (11717891_a_at) / Fold change /veh ECM1 (11717891_a_at) / RFU IL23R (11748794_a_at) / Fold change /veh IL23R (11748794_a_at) / RFU TNFAIP8L3 (11732012_x_at) / Fold change /veh TNFAIP8L3 (11732012_x_at) / RFU MBOAT4 (11741988_at) / Fold change /veh MBOAT4 (11741988_at) / RFU 11764193_at / Fold change /veh 11764193_at / RFU TMEM53 (11763286_at) / Fold change /veh TMEM53 (11763286_at) / RFU MAGEB2 (11727129_at) / Fold change /veh MAGEB2 (11727129_at) / RFU TMEM200A (11744735_a_at) / Fold change /veh TMEM200A (11744735_a_at) / RFU CCDC152 (11751479_a_at) / Fold change /veh CCDC152 (11751479_a_at) / RFU FAM211A (11726209_a_at) / Fold change /veh FAM211A (11726209_a_at) / RFU RGS16 (11746705_a_at) / Fold change /veh RGS16 (11746705_a_at) / RFU VCAN (11755009_s_at) / Fold change /veh VCAN (11755009_s_at) / RFU RHOB (11743442_s_at) / Fold change /veh RHOB (11743442_s_at) / RFU RGS16 (11720943_a_at) / Fold change /veh RGS16 (11720943_a_at) / RFU RGS16 (11720944_at) / Fold change /veh RGS16 (11720944_at) / RFU, VPS4B / Fold change vs veh, VPS4B / RFU, CREB1 / Fold change vs veh, CREB1 / RFU, DNAJC13 / Fold change vs veh, DNAJC13 / RFU, GNAQ / Fold change vs veh, GNAQ / RFU, CDK5R1 / Fold change vs veh, CDK5R1 / RFU, ZRANB3 / Fold change vs veh, ZRANB3 / RFU, CUL4A / Fold change vs veh, CUL4A / RFU, CCNY / Fold change vs veh, CCNY / RFU, UFL1 / Fold change vs veh, UFL1 / RFU, COG3 / Fold change vs veh, COG3 / RFU, DIAPH2 / Fold change vs veh, DIAPH2 / RFU, SKA2 / Fold change vs veh, SKA2 / RFU, AFF3 / Fold change vs veh, AFF3 / RFU, LMF1 / Fold change vs veh, LMF1 / RFU, IPO11 / Fold change vs veh, IPO11 / RFU, DFFB / Fold change vs veh, DFFB / RFU, FOXP1 / Fold change vs veh, FOXP1 / RFU, CARD8 / Fold change vs veh, CARD8 / RFU, STRN3 / Fold change vs veh, STRN3 / RFU, ADK / Fold change vs veh, ADK / RFU, RASSF2 / Fold change vs veh, RASSF2 / RFU, WIPF1 / Fold change vs veh, WIPF1 / RFU, LARP1B / Fold change vs veh, LARP1B / RFU, RASA1 / Fold change vs veh, RASA1 / RFU, RB1 / Fold change vs veh, RB1 / RFU, PPFIA1 / Fold change vs veh, PPFIA1 / RFU, MAT2A / Fold change vs veh, MAT2A / RFU, CCT5 / Fold change vs veh, CCT5 / RFU, WDR92 / Fold change vs veh, WDR92 / RFU, CUX1 / Fold change vs veh, CUX1 / RFU, TTC7A / Fold change vs veh, TTC7A / RFU, TMEM135 / Fold change vs veh, TMEM135 / RFU, DEPTOR / Fold change vs veh, DEPTOR / RFU, CPM / Fold change vs veh, CPM / RFU, DNAJB6 / Fold change vs veh, DNAJB6 / RFU, CACNA2D3 / Fold change vs veh, CACNA2D3 / RFU, DTX4 / Fold change vs veh, DTX4 / RFU, TFCP2 / Fold change vs veh, TFCP2 / RFU, GMCL1 /// GMCL1P1 / Fold change vs veh, GMCL1 /// GMCL1P1 / RFU, AEBP2 / Fold change vs veh, AEBP2 / RFU, SNHG1 /// SNORD22 /// SNORD25 /// SNORD26 /// SNORD27 /// SNORD28 /// SNORD29 /// SNORD31 / Fold change vs veh, SNHG1 /// SNORD22 /// SNORD25 /// SNORD26 /// SNORD27 /// SNORD28 /// SNORD29 /// SNORD31 / Fold change (Aza/veh), C12orf56 (ProbeSet 11735607_a_at) / Fold change (ACY-1035/veh), C12orf56 (ProbeSet 11735607_a_at) / Fold change (Aza/veh), FGFR1OP (ProbeSet 11751329_s_at) / Fold change (ACY-1035/veh), FGFR1OP (ProbeSet 11751329_s_at) / Fold change (Aza/veh), VPS36 (ProbeSet 11739960_a_at) / Fold change (ACY-1035/veh), VPS36 (ProbeSet 11739960_a_at) / RFU SYPL1 (11715823_x_at) / Fold change /veh SYPL1 (11715823_x_at) / RFU IGFBP7 (11715501_s_at) / Fold change /veh IGFBP7 (11715501_s_at) / RFU REEP3 (11722064_at) / Fold change /veh REEP3 (11722064_at) / RFU IGLL1 (11728026_x_at) / Fold change /veh IGLL1 (11728026_x_at): dose or concentration left out as unconfirmed. The following applies: MV-4-11 cells, 48 hours.

Take `Nc1ccc(-c2cccs2)cc1NC(=O)c1ccc2c(c1)cc(C1CC1)n2CCN1CCOCC1` [ACY-1035]: the “Fold change /veh ID3 (11757404_x_at)” value is listed as 1.00.
